Here are results for 21 compounds from patent publication US11260049B2, “TRPV4 antagonists” (GlaxoSmithKline Intellectual Property (No. 2) Limited, priority 2016, dated 2022).

Chain of human TRPV4 (Q9HBA0 whole entry): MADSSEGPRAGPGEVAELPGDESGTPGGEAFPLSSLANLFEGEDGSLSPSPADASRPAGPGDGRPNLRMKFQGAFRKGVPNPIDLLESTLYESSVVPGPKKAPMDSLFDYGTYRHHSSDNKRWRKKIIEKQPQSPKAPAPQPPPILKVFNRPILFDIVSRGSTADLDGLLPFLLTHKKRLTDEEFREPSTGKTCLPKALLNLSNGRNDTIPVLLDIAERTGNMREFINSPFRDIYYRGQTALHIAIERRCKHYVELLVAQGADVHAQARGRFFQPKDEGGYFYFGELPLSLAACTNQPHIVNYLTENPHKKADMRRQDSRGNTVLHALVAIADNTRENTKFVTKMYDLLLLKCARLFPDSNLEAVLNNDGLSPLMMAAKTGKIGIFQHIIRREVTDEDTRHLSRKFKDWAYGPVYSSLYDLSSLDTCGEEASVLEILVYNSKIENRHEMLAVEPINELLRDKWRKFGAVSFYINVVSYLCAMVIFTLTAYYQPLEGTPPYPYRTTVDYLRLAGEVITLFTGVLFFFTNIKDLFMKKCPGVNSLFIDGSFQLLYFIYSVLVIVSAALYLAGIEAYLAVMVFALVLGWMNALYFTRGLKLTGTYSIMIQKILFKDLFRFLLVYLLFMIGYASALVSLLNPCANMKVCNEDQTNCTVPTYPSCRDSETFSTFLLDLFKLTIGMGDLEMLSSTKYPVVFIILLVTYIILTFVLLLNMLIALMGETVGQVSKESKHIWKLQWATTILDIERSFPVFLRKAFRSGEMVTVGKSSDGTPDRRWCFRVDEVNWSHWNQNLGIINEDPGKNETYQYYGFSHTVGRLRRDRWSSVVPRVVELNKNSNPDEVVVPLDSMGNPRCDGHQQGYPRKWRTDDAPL

The assay deals with human TRPV4 (Homo sapiens (Human), UniProt Q9HBA0). As to the kind of experiment: FLIPR assay for hTRPV4 expressed in BHK cells. The note with it: inhibition of Agonist Compound (EC80)-induced calcium signal; BHK/AC9 cells expressing human TRPV4; read-out: IC50. The format is cell-based. The method in brief:
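BHK/AC9 cells transduced with BacMam human TRPV4 (MOI 78), 15,000 cells/well, cultured 24 h at 37 °C. Loaded with 2 μM Fluo-4 AM and 500 μM Brilliant Black in HBSS for 1–1.5 h at room temperature in the dark. Intracellular calcium influx monitored by fluorescence.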
`N#Cc1ccc(S(=O)(=O)N2C[C@H](S(=O)(=O)c3ccc(Cl)cc3)[C@](O)(CO)C2)c(OC2CC2)c1` [Example 50, 4-(((3R,4S)-4-((4-chlorophenyl)sulfonyl)-3-hydroxy-3-(hydroxymethyl)pyrrolidin-1-yl)sulfonyl)-3-cyclopropoxybenzonitrile]: the IC50 fell in the range of 0.01 to 0.1 µM.

Take `COc1ccc(S(=O)(=O)N2C[C@H](S(=O)(=O)c3ccc(C#N)cc3)[C@](O)(CO)C2)c(Br)c1` [Example 60, 4-(((3S,4R)-1-((2-bromo-4-methoxyphenyl)sulfonyl)-4-hydroxy-4-(hydroxymethyl)pyrrolidin-3-yl)sulfonyl)benzonitrile]: the IC50 lay within 0.01 to 0.1 µM.

As for `O=S(=O)(c1ccc(Cl)c(F)c1)[C@H]1CN(S(=O)(=O)c2ccc(Cl)cc2Cl)C[C@]1(O)CO` [Example 76, (3S,4S)-4-((4-chloro-3-fluorophenyl)sulfonyl)-1-((2,4-dichlorophenyl)sulfonyl)-3-(hydroxymethyl)pyrrolidin-3-ol], the IC50 lay within 0.01 to 0.1 µM.

With `N#Cc1cc(F)c(S(=O)(=O)[C@H]2CN(S(=O)(=O)c3ccc(Cl)cc3Cl)C[C@]2(O)CO)cc1F` [Example 79, 4-(((3S,4S)-1-((2,4-dichlorophenyl)sulfonyl)-4-hydroxy-4-(hydroxymethyl)pyrrolidin-3-yl)sulfonyl)-2,5-difluorobenzonitrile], the IC50 is 0.01 to 0.1 µM.

For `O=S(=O)(c1ccc(Cl)c(F)c1)[C@H]1CN(S(=O)(=O)c2ccc(C(F)(F)F)cc2Cl)C[C@@]1(O)CO` [Example 98, (3R,4S)-4-((4-chloro-3-fluorophenyl)sulfonyl)-1-((2-chloro-4-(trifluoromethyl)phenyl)sulfonyl)-3-(hydroxymethyl)pyrrolidin-3-ol], the concentration for half-maximal inhibition (IC50) was 0.01 to 0.1 µM.

For `N#Cc1ccccc1S(=O)(=O)N1C[C@H](S(=O)(=O)c2ccc(C(F)(F)F)cc2)[C@](O)(CO)C1` [Example 53, 2-(((3R,4S)-3-hydroxy-3-(hydroxymethyl)-4-((4-(trifluoromethyl)phenyl)sulfonyl)pyrrolidin-1-yl)sulfonyl)benzonitrile], the IC50 was 0.01 to 0.1 µM.

With `O=S(=O)(c1ccc(F)c(F)c1)[C@H]1CN(S(=O)(=O)c2ccc(Cl)cc2Cl)C[C@@]1(O)CO` [Example 85, (3R,4S)-1-((2,4-dichlorophenyl)sulfonyl)-4-((3,4-difluorophenyl)sulfonyl)-3-(hydroxymethyl)pyrrolidin-3-ol], the IC50 lay in the range of 0.01 to 0.1 µM.

On to `O=S(=O)(c1ccc(Cl)nc1)[C@H]1CN(S(=O)(=O)c2ccc(C(F)(F)F)cc2Cl)C[C@@]1(O)CO` [Example 99, (3R,4S)-1-((2-chloro-4-(trifluoromethyl)phenyl)sulfonyl)-4-((6-chloropyridin-3-yl)sulfonyl)-3-(hydroxymethyl)pyrrolidin-3-ol], for which the IC50 lay in the range of 0.01 to 0.1 µM.

As for `CCc1ccc(S(=O)(=O)[C@H]2CN(S(=O)(=O)c3ccc(C#N)cc3Cl)C[C@@]2(O)CO)cc1` [Example 104, 3-chloro-4-(((3R,4S)-4-((4-ethylphenyl)sulfonyl)-3-hydroxy-3-(hydroxymethyl)pyrrolidin-1-yl)sulfonyl)benzonitrile], the IC50 was in the range of 0.01 to 0.1 µM.

Turning to `N#Cc1cc(C(F)(F)F)ccc1S(=O)(=O)N1C[C@H](S(=O)(=O)c2cc(F)c(F)c(F)c2)[C@](O)(CO)C1` [Example 94, 2-(((3R,4S)-3-hydroxy-3-(hydroxymethyl)-4-((3,4,5-trifluorophenyl)sulfonyl)pyrrolidin-1-yl)sulfonyl)-5-(trifluoromethyl)benzonitrile], the IC50 was 0.01 to 0.1 µM.

As for `N#Cc1ccc(S(=O)(=O)N2C[C@H](S(=O)(=O)c3ccc(C(F)(F)F)nc3)[C@](O)(CO)C2)c(Br)c1` [Example 39, 3-bromo-4-(((3R,4S)-3-hydroxy-3-(hydroxymethyl)-4-((6-(trifluoromethyl)pyridin-3-yl)sulfonyl)pyrrolidin-1-yl)sulfonyl)benzonitrile], the IC50 was in the range of 0.01 to 0.1 µM.

In the case of `N#Cc1ccc(S(=O)(=O)N2C[C@H](S(=O)(=O)c3ccc(Br)cn3)[C@@](O)(CO)C2)c(Cl)c1` [Example 81, 4-(((3S,4S)-4-((5-bromopyridin-2-yl)sulfonyl)-3-hydroxy-3-(hydroxymethyl)pyrrolidin-1-yl)sulfonyl)-3-chlorobenzonitrile], the concentration for half-maximal inhibition (IC50) is 0.01 to 0.1 µM.

For `N#Cc1ccc(S(=O)(=O)[C@H]2CN(S(=O)(=O)c3ccc(C(F)(F)F)cc3Cl)C[C@]2(O)CO)cc1Cl` [Example 80, 2-chloro-4-(((3S,4S)-1-((2-chloro-4-(trifluoromethyl)phenyl)sulfonyl)-4-hydroxy-4-(hydroxymethyl)pyrrolidin-3-yl)sulfonyl)benzonitrile], the 50% inhibitory concentration (IC50) fell in the range of 0.01 to 0.1 µM.

As for `N#Cc1ccc(S(=O)(=O)N2C[C@H](S(=O)(=O)c3ccc(C(F)(F)F)cc3)[C@](O)(CO)C2)c(Cl)c1` [Example 54, 3-chloro-4-(((3R,4S)-3-hydroxy-3-(hydroxymethyl)-4-((4-(trifluoromethyl)phenyl)sulfonyl)pyrrolidin-1-yl)sulfonyl)benzonitrile], the IC50 was 0.0001 to 0.01 µM.

Turning to `N#Cc1ccc(S(=O)(=O)N2C[C@H](S(=O)(=O)c3ccc(Cl)cn3)[C@](O)(CN)C2)c(Cl)c1` [Example 121, 4-(((3S,4S)-3-(aminomethyl)-4-((5-chloropyridin-2-yl)sulfonyl)-3-hydroxypyrrolidin-1-yl)sulfonyl)-3-chlorobenzonitrile], the IC50 lay within 0.0001 to 0.01 µM.

Consider `N#CCc1cc(Cl)ccc1S(=O)(=O)N1C[C@H](S(=O)(=O)c2ccc(Cl)cc2)[C@](O)(CO)C1` [Example 66, 2-(5-chloro-2-(((3R,4S)-4-((4-chlorophenyl)sulfonyl)-3-hydroxy-3-(hydroxymethyl)pyrrolidin-1-yl)sulfonyl)phenyl)acetonitrile], for which the IC50 lay in the range of 0.01 to 0.1 µM.

As for `O=S(=O)(c1ccc(Cl)cc1)[C@H]1CN(S(=O)(=O)c2ccc(Cl)cc2Cl)C[C@@]1(O)CO` [Example 18, (3R,4S)-4-((4-chlorophenyl)sulfonyl)-1-((2,4-dichlorophenyl)sulfonyl)-3-(hydroxymethyl)pyrrolidin-3-ol], the IC50 was in the range of 0.01 to 0.1 µM.

In the case of `N#Cc1ccc(S(=O)(=O)[C@H]2CN(S(=O)(=O)c3ccccc3C(F)(F)F)C[C@@]2(O)CO)cc1` [Example 41, 4-(((3S,4R)-4-hydroxy-4-(hydroxymethyl)-1-((2-(trifluoromethyl)phenyl)sulfonyl)pyrrolidin-3-yl)sulfonyl)benzonitrile], the IC50 was in the range of 0.01 to 0.1 µM.

As to `N#Cc1ccc(S(=O)(=O)N2C[C@H](S(=O)(=O)c3ccc(Cl)cn3)[C@@](O)(CO)C2)c(Cl)c1` [Example 109, 3-chloro-4-(((3S,4S)-4-((5-chloropyridin-2-yl)sulfonyl)-3-hydroxy-3-(hydroxymethyl)pyrrolidin-1-yl)sulfonyl)benzonitrile], the IC50 lay in the range of 0.01 to 0.1 µM.

`N#Cc1ccc(S(=O)(=O)N2C[C@H](S(=O)(=O)c3ccc(Cl)c(F)c3)[C@](O)(CO)C2)c(Cl)c1` [Example 107, 3-chloro-4-(((3R,4S)-4-((4-chloro-3-fluorophenyl)sulfonyl)-3-hydroxy-3-(hydroxymethyl)pyrrolidin-1-yl)sulfonyl)benzonitrile]: the IC50 is 0.0001 to 0.01 µM.

As to `N#Cc1ccc(S(=O)(=O)N2C[C@H](S(=O)(=O)c3ccc(Cl)cc3)[C@](O)(CO)C2)c(C(F)F)c1` [Example 48, 4-(((3R,4S)-4-((4-chlorophenyl)sulfonyl)-3-hydroxy-3-(hydroxymethyl)pyrrolidin-1-yl)sulfonyl)-3-(difluoromethyl)benzonitrile], the half-maximal inhibitory concentration (IC50) fell in the range of 0.0001 to 0.01 µM.

By IC50 is commonly meant the concentration that gives 50% inhibition.
